Assays:
[1] = system: BECN1, SQSTM1/p62, (phospho)p42/44 MAPK; assay: Immunoblot of autophagy and inflammation markers in nasal primary cells; format: cell-based, human; conditions: 0.1 μM
Excerpt: Freshly isolated brushed nasal epithelial cells were collected by nasal brushing, as previously described (21, 21) from 10 F508del-CFTR homozygous CF patients and from 5 non-CF healthy volunteers recruited from staff at the same time points. Both patients and healthy volunteers gave written informed consent. […] Brushes with cells were immediately transferred into RPMI 1640 medium (Invitrogen) containing 1% penicillin-streptomycin (Lonza, 17-602E), in 15-ml sterilized tubes. The tubes were incubated at 37° C. for 2 h on a thermo shaker, to remove all cell from brushes; the brushes were then removed and the cells centrifuged at 800×g (2000 rpm) for 20 min. The supernatant fractions were discarded and the cell pellet treated with […] of trypsin-versene (EDTA) solution (Lonza, 17-161) for 4 min at 37° C. to disaggregate possible cell clusters. Trypsin solution was inactivated by adding 3 ml of serum-free Bronchial Epithelial cell Growth Medium BEGM (Clonetics, Lonza, CC3170). After centrifugation at 800×g (2000 rpm) for 10 min, cells were placed in CELLC T 25 flasks (Sarstedt Ltd, CS300) with 10 ml of BEGM medium. Nonspecific epithelial cells were removed during the daily cell washing and medium changes.
(§1) The proteins of cell lines lysates or lung or small intestine homogenates, obtained from treated and untreated cells or mice, were quantified by a Bio-Rad protein assay to ensure equal protein loading before immunoblot analysis. Fifty micrograms of proteins were loaded in each lane. Antibodies against SQSTM1, (Sigma Aldrich,P0067) 1:1000, BECN1 (Abcam, ab58878), 1:1000, CFTR clone CF3 (Abcam, ab2784) 1:1000 or anti-CFTR antibody 660 1:1000, Phospho-p44/42 MAPK (Erk1/2) (Thr202/Tyr204) (Cell Signaling Technology, #91101) 1:1000, TG2 (CUB7402, NEOMARKER) 1:1000 were used. Normalization was performed by probing the membrane with anti-β-actin (Cell Signaling, #4970) 1:1000 or anti-α-tubulin (Cell Signaling Technology, 2148) 1:1000.

[2] = system: TNF alpha, MIP-2; assay: ELISA of inflammatory cytokines in tissues of CftrF508del mice; format: in vivo; conditions: intestinal and lung tissues
Excerpt: CF mice homozygous for the delF508-CFTR mutation (abbreviated CftrF508del) in the 129/FVB outbred background (CftrtmlEUR, F508del, FVB/129) were obtained from Erasmus Medical Center Rotterdam, The Netherlands (CF coordinated action program EU FP6 LSHM-CT-2005-018932). These studies and procedures were approved by the local Ethics Committee for Animal Welfare (IACUC No 713). Young adult CF mice and their wild-type (wt) littermates were housed in static isolator cages at the animal care specific pathogen-free facility of Charles River (Calco, Italy). CftrF508del mice were treated with daily intraperitoneal injections of cysteamine (100 μl of 0.05 M in PBS) (Sigma Aldrich, M9768) or IE1 (100 μl of 0.075-0.05-0.025-0.0125 M, in PBS) for 5 d or with cysteamine (5 d) or IE1 different concentrations followed by 10 d or 20 d of PBS alone (n=5 mice per group) (19,20).
ELISA. ELISA was performed on tissue samples using standard ELISA kits (R&D Systems) for TNF-α, Mip2a. According to the manufacturer's instructions, samples were read in triplicate at 450 nm in a microplate Reader (Bio-Rad, Milan, Italy) using Microplate Manager 5.2.1 software.
Values were normalized to protein concentration evaluated by Bradford analysis.

[3] = target: CFTR (Homo sapiens, UniProt P13569, DEL508-508); assay: Immunoblot detection of CFTR in CFBE cells; format: cell-based; parameters: expressed in transfected cells; host or cells: CFBE41o- cells
Description: Cell lines experiments. CFBE41l- and 16HBE14o-cells were cultured in Minimum Essential Medium (MEM) with Earle's salt, 200 mM L-Glutamine, 10% FBS and penicillin/streptomycin. CFBE41o-cells were transfected with AF508-CFTR at 37° C. and incubated for 18 h with cysteamine (250 μM) or different concentration of IE1.
as §1

Sequence of CFTR (P13569 with tags, fused parts or gaps DEL508-508): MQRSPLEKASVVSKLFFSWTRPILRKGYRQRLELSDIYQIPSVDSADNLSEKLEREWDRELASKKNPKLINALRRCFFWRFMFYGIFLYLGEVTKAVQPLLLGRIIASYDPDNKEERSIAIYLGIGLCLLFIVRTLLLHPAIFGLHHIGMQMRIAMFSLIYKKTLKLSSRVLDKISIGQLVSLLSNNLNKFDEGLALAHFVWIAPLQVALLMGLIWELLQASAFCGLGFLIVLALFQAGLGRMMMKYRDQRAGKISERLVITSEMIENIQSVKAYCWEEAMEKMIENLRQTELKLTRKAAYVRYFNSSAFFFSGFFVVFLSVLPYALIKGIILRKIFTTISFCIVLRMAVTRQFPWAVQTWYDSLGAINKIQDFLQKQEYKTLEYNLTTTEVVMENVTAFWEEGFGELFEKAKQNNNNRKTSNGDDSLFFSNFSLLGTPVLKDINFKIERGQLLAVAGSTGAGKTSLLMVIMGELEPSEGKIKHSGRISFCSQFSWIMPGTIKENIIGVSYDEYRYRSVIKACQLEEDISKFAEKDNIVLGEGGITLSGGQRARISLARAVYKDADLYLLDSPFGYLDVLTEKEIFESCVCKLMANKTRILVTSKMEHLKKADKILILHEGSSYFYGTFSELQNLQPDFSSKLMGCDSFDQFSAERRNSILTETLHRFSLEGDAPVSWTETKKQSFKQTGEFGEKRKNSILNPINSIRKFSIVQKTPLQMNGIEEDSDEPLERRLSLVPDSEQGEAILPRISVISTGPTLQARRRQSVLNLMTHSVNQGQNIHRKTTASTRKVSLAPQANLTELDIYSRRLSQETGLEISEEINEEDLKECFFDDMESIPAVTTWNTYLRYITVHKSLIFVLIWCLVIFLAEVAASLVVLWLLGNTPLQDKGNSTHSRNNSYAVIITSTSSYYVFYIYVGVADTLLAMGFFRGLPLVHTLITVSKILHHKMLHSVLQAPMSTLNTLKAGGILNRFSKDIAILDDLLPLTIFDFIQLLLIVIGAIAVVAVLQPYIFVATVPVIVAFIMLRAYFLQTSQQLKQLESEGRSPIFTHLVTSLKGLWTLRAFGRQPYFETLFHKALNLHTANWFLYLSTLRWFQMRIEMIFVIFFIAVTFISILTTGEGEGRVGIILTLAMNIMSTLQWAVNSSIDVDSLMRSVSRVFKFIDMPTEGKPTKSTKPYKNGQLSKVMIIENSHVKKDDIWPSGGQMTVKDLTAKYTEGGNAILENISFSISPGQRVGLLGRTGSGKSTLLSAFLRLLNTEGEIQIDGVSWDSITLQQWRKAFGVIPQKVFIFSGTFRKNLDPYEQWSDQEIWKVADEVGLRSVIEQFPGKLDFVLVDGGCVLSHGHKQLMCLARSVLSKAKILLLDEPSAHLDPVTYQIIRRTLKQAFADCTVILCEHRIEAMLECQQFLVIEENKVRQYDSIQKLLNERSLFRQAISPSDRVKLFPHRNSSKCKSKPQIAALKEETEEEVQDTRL

NCCCS [IE1, 3-aminopropane-1-thiol]
BECN1 level [1]: able to restore BECN1
Inflammation biomarkers (phospho)p42/44 MAPK [1]: decrease
p62 levels [1]: reduce p62 levels
Effect on (phospho)p42/44 MAPK after 48 h in presence of EGCG ([1]; 48 h, EGCG): maintained
Effect on BECN1 and p62 after 48 h with EGCG addition ([1]; 48 h, EGCG addition): preserved
Effect on (phospho)p42/44 MAPK after 48 h ([1]; after 48 h): completely lost
Effect on BECN1 and p62 after 48 h ([1]; after 48 h): disappears
MIP-2 [2]: decrease principal inflammatory cytokines
TNF alpha [2]: decrease principal inflammatory cytokines
PM-resident CFTR protein ([3]; 0.1 μM): a sizeable fraction of the channel resided at the PM
PM-resident CFTR protein after washout ([3]; 0.1 μM, 24 h of washout): maintained
PM-resident CFTR protein after washout ([3]; 48 h of washout): decreases
PM-resident CFTR protein after washout with EGCG added ([3]; 48 h of washout, EGCG added): completely maintained

From patent US20200179312A1, “ANALOGUES OF CYSTEAMINE AS THERAPEUTIC AGENTS FOR CYSTIC FIBROSIS” (I.E.R.F.C. EUROPEAN INSTITUTE FOR CYSTIC FIBROSIS RESEARCH, priority 2018, published 2020)
